Laboratory results as given in patent publication US20240335395A1, “COMPOSITIONS AND METHODS FOR PREVENTING AND/OR TREATING DISEASE ASSOCIATED WITH IL-23 EXPRESSION” (ALLSPIM, priority 2021, published 2024).

How the values were obtained:
[1] = test system: IL-17; assay: IL-17 protein in culture supernatant of RA-patient synovial cells; format: cell-based, human; settings: increasing concentrations
[2] = test system: TPA-induced psoriasis-like skin hyperplasia; assay: TPA-induced psoriasis-like skin hyperplasia in BALB/c mice; format: in vivo, mouse
Protocol: Induction of TPA-induced psoriasis-like skin hyperplasia in mice treated with oral 2,4-D. Forty mice (BALB/c) were purchased from Guangdong Experimental Animal Center. All experiments were approved by the animal ethics committee of Guangzhou University of Chinese Medicine according to Chinese legislation on animal experiments. Mice (n=30) at 8 to 11 weeks of age received a daily topical dose of 15 μg TPA (Sigma) in 200 μl of acetone on the shaved back for day 1 and 4. This dose was empirically determined to cause the most optimal and reproducible skin inflammation in mice (data not shown). Control mice (n=10) were treated similarly with a control vehicle cream (Sigma). See FIG. 9 for an illustrative example of a mouse receiving topical TPA as compared to a control mouse receiving a control vehicle cream. Of the 30 mice that received topical TPA, 20 mice were treated orally with 0.2 mg (n=10) or 1 mg (n=10) 2,4-D daily until day 6. The remaining 10 untreated TPA mice served as a disease control. On day 7, dorsal skin was photographed and fixed in 10% formalin and stained with H&E (Haemotoxylin and Eosin). Epidermal thickness was quantified by Image J software.
Statistical analysis. Data are presented as the mean±SD for the in vivo animal study. Statistical analysis was performed using Student's t-test (paired 2-sample testing).

[3] = test system: IL-1β, IL6 and TNFalpha; assay: Endometriosis mouse model, cytokines in cell-free peritoneal lavage (ELISA); format: in vivo; settings: 50 mg/kg/day, 5 times a week, 6 weeks
Protocol: Experimental design. Balb/C female mice (10 weeks old) were habituated for 3 days to take a jelly containing (group EDT+2,4D) or not (groups No EDT and EDT+Vehicle) the compound. Surgical implantation of endometrial tissue from syngenic female in peritoneum, was performed at day 0 for groups EDT+Vehicle and EDT+2,4D. […] The vehicle or treatment was then given 5 times a week (50 mg/kg/day) during 6 weeks. Mice were then sacrificed and the peritoneal inflammation was assessed. All the details of the protocol are depicted in FIG. 27. Cytokine measurement in cell-free peritoneal lavage. After mice were euthanized, 5 mL of PBS was injected into the peritoneal cavity and the diluted peritoneal fluid containing the cells was then retrieved. […] Cytokine concentration was assessed by ELISA kit in the peritoneal fluid (ThermoFisher, Mouse IL-1β, IL6 and TNFalpha Uncoated ELISA). […] The optical density was read with the Clariostar Plus Microplate Reader (BMG LABTECH), through the Clario software. Concentrations were calculated from a standard curve according to the manufacturer's protocol. Phenotypic study of immune cells from the peritoneal cavity assessed by flow cytometry. The pelleted peritoneal cells were resuspended in PBS-2% FBS and counted. […] All data were collected on LSR Fortessa flow cytometer (BD Bioscience, USA) and analyzed with FlowJo software. […]

[4] = test system: immune cells from the peritoneal cavity; assay: Endometriosis mouse model, immune cell proportions of the peritoneal cavity (flow cytometry); format: in vivo; settings: 50 mg/kg/day, 5 times a week, 6 weeks
Protocol: Experimental design. Balb/C female mice (10 weeks old) were habituated for 3 days to take a jelly containing (group EDT+2,4D) or not (groups No EDT and EDT+Vehicle) the compound. Surgical implantation of endometrial tissue from syngenic female in peritoneum, was performed at day 0 for groups EDT+Vehicle and EDT+2,4D. […] The vehicle or treatment was then given 5 times a week (50 mg/kg/day) during 6 weeks. Mice were then sacrificed and the peritoneal inflammation was assessed. All the details of the protocol are depicted in FIG. 27. Cytokine measurement in cell-free peritoneal lavage. After mice were euthanized, 5 mL of PBS was injected into the peritoneal cavity and the diluted peritoneal fluid containing the cells was then retrieved. The cells were pelleted by centrifugation at 500×g 4° C. and the supernatant (cell-free peritoneal fluid) was frozen at −80° C. for subsequent cytokine concentration measurement by ELISA. Cytokine concentration was assessed by ELISA kit in the peritoneal fluid (ThermoFisher, Mouse IL-1β, IL6 and TNFalpha Uncoated ELISA). […] The optical density was read with the Clariostar Plus Microplate Reader (BMG LABTECH), through the Clario software. Concentrations were calculated from a standard curve according to the manufacturer's protocol. Phenotypic study of immune cells from the peritoneal cavity assessed by flow cytometry. The pelleted peritoneal cells were resuspended in PBS-2% FBS and counted. One million cells were stained with the following fluorophore-conjugated antibodies purchased from BioLegend: CD45 BV510, CD11b APC-Cy7, CD11c PE, F4/80 BV711, CD80 PE Cy5, CD206 AF647, Ly-6C, PE-Cy7, CCR2 BV786 et CXCR4 BV421, CD45R/B220 PE Texas-Red, CD3E FITC, NK1.1 BV605 and CD69 PerCP-Cy5.5, Zombie-UV. Cells were incubated 20 min in the dark at 4° C., washed with PBS-2% FBS, and were fixed with paraformaldehyde 4% in 5 mL round-bottom polystyrene tubes (Falcon™ 352054). Compensation was adjusted with Ultracomp beads (ThermoFisher). […] All data were collected on LSR Fortessa flow cytometer (BD Bioscience, USA) and analyzed with FlowJo software. […]

[5] = test system: cell surface markers CD80, Ly6C, CD206, CXCR4, CCR2; assay: Endometriosis mouse model, cell surface marker expression of peritoneal immune cells (flow cytometry); format: in vivo; settings: 50 mg/kg/day, 5 times a week, 6 weeks
Protocol: Experimental design. Balb/C female mice (10 weeks old) were habituated for 3 days to take a jelly containing (group EDT+2,4D) or not (groups No EDT and EDT+Vehicle) the compound. Surgical implantation of endometrial tissue from syngenic female in peritoneum, was performed at day 0 for groups EDT+Vehicle and EDT+2,4D. […] The vehicle or treatment was then given 5 times a week (50 mg/kg/day) during 6 weeks. Mice were then sacrificed and the peritoneal inflammation was assessed. All the details of the protocol are depicted in FIG. 27. Cytokine measurement in cell-free peritoneal lavage. After mice were euthanized, 5 mL of PBS was injected into the peritoneal cavity and the diluted peritoneal fluid containing the cells was then retrieved. The cells were pelleted by centrifugation at 500×g 4° C. and the supernatant (cell-free peritoneal fluid) was frozen at −80° C. for subsequent cytokine concentration measurement by ELISA. Cytokine concentration was assessed by ELISA kit in the peritoneal fluid (ThermoFisher, Mouse IL-1β, IL6 and TNFalpha Uncoated ELISA). […] The optical density was read with the Clariostar Plus Microplate Reader (BMG LABTECH), through the Clario software. Concentrations were calculated from a standard curve according to the manufacturer's protocol. Phenotypic study of immune cells from the peritoneal cavity assessed by flow cytometry. The pelleted peritoneal cells were resuspended in PBS-2% FBS and counted. One million cells were stained with the following fluorophore-conjugated antibodies purchased from BioLegend: CD45 BV510, CD11b APC-Cy7, CD11c PE, F4/80 BV711, CD80 PE Cy5, CD206 AF647, Ly-6C, PE-Cy7, CCR2 BV786 et CXCR4 BV421, CD45R/B220 PE Texas-Red, CD3E FITC, NK1.1 BV605 and CD69 PerCP-Cy5.5, Zombie-UV. Cells were incubated 20 min in the dark at 4° C., washed with PBS-2% FBS, and were fixed with paraformaldehyde 4% in 5 mL round-bottom polystyrene tubes (Falcon™ 352054). Compensation was adjusted with Ultracomp beads (ThermoFisher). All the antibodies were diluted at 1/200. All data were collected on LSR Fortessa flow cytometer (BD Bioscience, USA) and analyzed with FlowJo software. Statistical analysis. Outlier values farther than 2 standard deviation from the mean were not taken into account. Kruskal Wallis non-parametric test followed by Dunn's multiple comparisons test were performed for cytokines, One-Way Anova with Tukey's multiple comparisons test for flow cytometry data. *p<0.05, **p<0.01, ***p<0.001.

With COc1cc(O)c(OC)c(O)c1C(=O)/C=C/c1ccccc1 [2,4-D, 2′,4′-dihydroxy-3′,6′-dimethoxychalcone] the “concentration of IL-17 protein in the culture supernatant” value [1] was “significantly inhibited”, the “thickness of back skin compared with normal skin of control mice” value ([2]; 0.2 mg daily oral) was “significantly higher” and the “thickness of back skin hyperplasia compared with untreated mice” value ([2]; 0.2 mg daily oral) was “significantly lower”. For the same compound, the “thickness of back skin compared with normal skin of control mice” value ([2]; 1 mg daily oral) was “similar”, the “thickness of back skin hyperplasia compared with untreated mice” value ([2]; 1 mg daily oral) was “significantly lower” and the “dorsal skin compared to mice receiving TPA only” value ([2]; 0.2 or 1 mg daily oral) was “improved in a dose-dependent manner”. The “concentration of IL1-β, IL-6 and TNF-α in peritoneal lavage” value [3] was “tended to normalize”, the “global T cell proportion” value [4] was “did not affect” and the “proportion of NK cells amongst the peritoneal cells” value [4] was “significantly reduced”. The proportion of macrophages [4] was “not changed”, the CCR2 [5] was “significantly reduced” and the CXCR4 [5] was “tended to decrease”. The Ly6C pro-inflammatory marker [5] was “tended to decrease” and the “anti-inflammatory CD206 marker” value [5] was “did not reduce”.
